Laboratory results taken from patent US20250073340A1, “SPIROCYCLIC MDM2 MODULATOR AND USES THEREOF” (Newave Pharmaceutical Inc., priority 2021, published 2025).
Like-named read-outs stand apart in the source and are kept apart here.

How the values were obtained:
[1] = system: BCL-2-dependent acute lymphoblastic leukemia (ALL) cell line RS4;11 overexpressing Bcl-2 G101V; assay: cells; assay type: cell-based; conditions: Homo sapiens, read-out: RS4;11-G101V IC50
Description: Biological Example 2: In vitro Anti-proliferation Assay in BCL-2-dependent acute lymphoblastic leukemia (ALL) cell line RS4; 11 overexpressing Bcl-2 G101V
Cell antiproliferation was assayed by PerkinElmer ATPlite™ Luminescence Assay System. Briefly, the various test cancer cell lines were plated at a density of about 1×10^4 cells per well in Costar 96-well plates, and were incubated with different concentrations of compounds for about 72 hours in medium supplemented with 5% FBS or 10% normal human serum (NHS). One lyophilized substrate solution vial was then reconstituted by adding 5 mL of substrate buffer solution, and was agitated gently until the solution was homogeneous. About 50 μL of mammalian cell lysis solution was added to 100 μL of cell suspension per well of a microplate, and the plate was shaken for about five minutes in an orbital shaker at −700 rpm. This procedure was used to lyse the cells and to stabilize the ATP. Next, 50 μL substrate solution was added to the wells and microplate was shaken for five minutes in an orbital shaker at −700 rpm. Finally, the luminescence was measured by a PerkinElmer TopCount® Microplate Scintillation Counter. Such assays, carried out with a range of doses of test compounds, allowed the determination of the cellular anti-antiproliferative IC50 of the compounds of the present invention.

[2] = target: MDM2 (Homo sapiens (Human), UniProt Q00987); assay: In vitro MDM2 HTRF assay (inhibition of p53-MDM2 interaction); assay type: binding; conditions: GST-MDM2 / biotinylated p53 peptide
Sequence of MDM2 (Q00987 whole entry): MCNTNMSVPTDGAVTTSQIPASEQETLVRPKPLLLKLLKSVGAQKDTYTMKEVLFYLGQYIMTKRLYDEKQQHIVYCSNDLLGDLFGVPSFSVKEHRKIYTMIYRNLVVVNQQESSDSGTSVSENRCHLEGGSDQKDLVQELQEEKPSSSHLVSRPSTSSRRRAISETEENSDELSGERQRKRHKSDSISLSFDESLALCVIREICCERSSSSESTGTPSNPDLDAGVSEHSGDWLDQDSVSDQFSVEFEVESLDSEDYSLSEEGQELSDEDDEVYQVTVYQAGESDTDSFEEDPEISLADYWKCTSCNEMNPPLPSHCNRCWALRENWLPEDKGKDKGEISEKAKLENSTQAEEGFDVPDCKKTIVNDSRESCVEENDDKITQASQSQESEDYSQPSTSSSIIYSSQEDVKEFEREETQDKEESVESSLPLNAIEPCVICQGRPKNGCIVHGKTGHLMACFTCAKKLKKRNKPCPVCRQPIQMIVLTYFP

[3] = RS4-11, about 72 hours, ATPlite luminescence

Compound | IC50 [1, 3] [nM] | also measured
COc1cc(C(N)=O)ccc1NC(=O)[C@@H]1N[C@@H](CC(C)(C)C)[C@@]2(CNc3cc(Cl)ccc32)[C@H]1c1cccc(Cl)c1F [Example 1, (2′S,3S,4′S,5′R)—N-(4-carbamoyl-2-methoxyphenyl)-6-chloro-4′-(3-chloro-2-fluorophenyl)-2′-neopentylspiro[indoline-3,3′-pyrrolidine]-5′-carboxamide] |  | IC50 ([1]; RS4-11, 72 h): 33 nM
COc1cc(C(N)=O)ccc1NC(=O)[C@@]1(C)N[C@H](CC(C)(C)C)[C@]2(CNc3cc(Cl)ccc32)[C@@H]1c1cccc(Cl)c1F [Example 8, (2′R,3R,4′R,5′S)—N-(4-carbamoyl-2-methoxyphenyl)-6-chloro-4′-(3-chloro-2-fluorophenyl)-2′-(2,2-dimethylpropyl)-5′-methyl-1,2-dihydrospiro[indole-3,3′-pyrrolidine]-5′-carboxamide] | 127 | 
COc1cc(C(N)=O)ccc1NC(=O)[C@H]1N[C@H](CC(C)(C)C)[C@]2(CNc3cc(Cl)ncc32)[C@@H]1c1cccc(Cl)c1F [Example 10, (2R,3R,4R,5S)—N-(4-carbamoyl-2-methoxyphenyl)-6′-chloro-4-(3-chloro-2-fluorophenyl)-2-(2,2-dimethylpropyl)-1′,2′-dihydrospiro[pyrrolidine-3,3′-pyrrolo[3,2-c]pyridine]-5-carboxamide] |  | IC50 [2]: 276 nM
COc1cc(C(N)=O)ccc1NC(=O)[C@H]1N[C@H](CC(C)(C)C)[C@]2(CNc3cc(C(F)(F)F)ncc32)[C@@H]1c1cccc(Cl)c1F [Example 12, (2R,3R,4R,5S)—N-(4-carbamoyl-2-methoxyphenyl)-4-(3-chloro-2-fluorophenyl)-2-(2,2-dimethylpropyl)-6′-(trifluoromethyl)-1′,2′-dihydrospiro[pyrrolidine-3,3′-pyrrolo[3,2-c]pyridine]-5-carboxamide] |  | IC50 [2]: 103 nM
COc1cc(C(=O)NCCCC#Cc2cccc3c2CN(C2CCC(=O)N(C)C2=O)C3=O)ccc1NC(=O)[C@@H]1N[C@@H](CC(C)(C)C)[C@@]2(CNc3cc(Cl)ccc32)[C@H]1c1cccc(Cl)c1F (stereo partly drawn) [Example 19, (2′S,3S,4′S,5′R)-6-chloro-4′-(3-chloro-2-fluorophenyl)-2′-(2,2-dimethylpropyl)-N-[2-methoxy-4-({5-[2-(1-methyl-2,6-dioxopiperidin-3-yl)-1-oxo-3H-isoindol-4-yl]pent-4-yn-1-yl}carbamoyl)phenyl]-1,2-dihydrospiro[indole-3,3′-pyrrolidine]-5′-carboxamide] |  | IC50 [2]: 2.03 nM
COc1cc(N2CCC[C@H](C#Cc3cccc4c3CN([C@H]3CCC(=O)NC3=O)C4=O)C2)ccc1NC(=O)[C@@H]1N[C@@H](CC(C)(C)C)[C@@]2(CNc3cc(Cl)ccc32)[C@H]1c1cccc(Cl)c1F [Example 28, (2′S,3S,4′S,5′R)-6-chloro-4′-(3-chloro-2-fluorophenyl)-N-(4-((R)-3-((2-((S)-2,6-dioxopiperidin-3-yl)-1-oxoisoindolin-4-yl)ethynyl)piperidin-1-yl)-2-methoxyphenyl)-2′-neopentylspiro[indoline-3,3′-pyrrolidine]-5′-carboxamide] |  | IC50 [2]: 10.8 nM
COc1cc(C(=O)N[C@H]2CCCC[C@H]2CC#Cc2cccc3c2CN(C2CCC(=O)NC2=O)C3=O)ccc1NC(=O)[C@@H]1N[C@@H](CC(C)(C)C)[C@@]2(CNc3cc(Cl)ccc32)[C@H]1c1cccc(Cl)c1F (stereo partly drawn) [Example 40, (2′S,3S,4′S,5′R)-6-chloro-4′-(3-chloro-2-fluorophenyl)-2′-(2,2-dimethylpropyl)-N-(4-{[(1S,2S)-2-{3-[2-(2,6-dioxopiperidin-3-yl)-1-oxo-3H-isoindol-4-yl]prop-2-yn-1-yl}cyclohexyl]carbamoyl}-2-methoxyphenyl)-1,2-dihydrospiro[indole-3,3′-pyrrolidine]-5′-carboxamide] | 11.4 | 
COc1cc(C(=O)N[C@@H]2CCCC[C@@H]2CC#Cc2cccc3c2CN(C2CCC(=O)NC2=O)C3=O)ccc1NC(=O)[C@@H]1N[C@@H](CC(C)(C)C)[C@@]2(CNc3cc(Cl)ccc32)[C@H]1c1cccc(Cl)c1F (stereo partly drawn) [Example 41, (2′S,3S,4′S,5′R)-6-chloro-4′-(3-chloro-2-fluorophenyl)-2′-(2,2-dimethylpropyl)-N-(4-{[(1R,2R)-2-{3-[2-(2,6-dioxopiperidin-3-yl)-1-oxo-3H-isoindol-4-yl]prop-2-yn-1-yl}cyclohexyl]carbamoyl}-2-methoxyphenyl)-1,2-dihydrospiro[indole-3,3′-pyrrolidine]-5′-carboxamide] | 54.3 | 
COc1cc(C(=O)N2CCCC[C@@H]2C#CC#Cc2cccc3c2CN(C2CCC(=O)NC2=O)C3=O)ccc1NC(=O)[C@@H]1N[C@@H](CC(C)(C)C)[C@@]2(CNc3cc(Cl)ccc32)[C@H]1c1cccc(Cl)c1F (stereo partly drawn) [Example 46, (2′S,3S,4′S,5′R)-6-chloro-4′-(3-chloro-2-fluorophenyl)-2′-(2,2-dimethylpropyl)-N-{4-[(2R)-2-{4-[2-(2,6-dioxopiperidin-3-yl)-1-oxo-3H-isoindol-4-yl]buta-1,3-diyn-1-yl}piperidine-1-carbonyl]-2-methoxyphenyl}-1,2-dihydrospiro[indole-3,3′-pyrrolidine]-5′-carboxamide] | > 1000 | 
COc1cc(C(=O)N2CCCC[C@H]2C#CC#Cc2cccc3c2CN(C2CCC(=O)NC2=O)C3=O)ccc1NC(=O)[C@@H]1N[C@@H](CC(C)(C)C)[C@@]2(CNc3cc(Cl)ccc32)[C@H]1c1cccc(Cl)c1F (stereo partly drawn) [Example 47, (2′S,3S,4′S,5′R)-6-chloro-4′-(3-chloro-2-fluorophenyl)-2′-(2,2-dimethylpropyl)-N-{4-[(2S)-2-{4-[2-(2,6-dioxopiperidin-3-yl)-1-oxo-3H-isoindol-4-yl]buta-1,3-diyn-1-yl}piperidine-1-carbonyl]-2-methoxyphenyl}-1,2-dihydrospiro[indole-3,3′-pyrrolidine]-5′-carboxamide] | > 1000 | 
COc1cc(C(=O)N2CC(C#Cc3cccc4c3CN(C3CCC(=O)NC3=O)C4=O)C2)ccc1NC(=O)[C@@H]1N[C@@H](CC(C)(C)C)[C@@]2(CNc3cc(Cl)ccc32)[C@H]1c1cccc(Cl)c1F (stereo partly drawn) [Example 55, (2′S,3S,4′S,5′R)-6-chloro-4′-(3-chloro-2-fluorophenyl)-2′-(2,2-dimethylpropyl)-N-[4-(3-{2-[2-(2,6-dioxopiperidin-3-yl)-1-oxo-3H-isoindol-4-yl]ethynyl}azetidine-1-carbonyl)-2-methoxyphenyl]-1,2-dihydrospiro[indole-3,3′-pyrrolidine]-5′-carboxamide] | 11.2 | 
COc1cc(C(=O)N2CCC[C@@]3(C[C@H]3C#Cc3cccc4c3CN([C@H]3CCC(=O)NC3=O)C4=O)C2)ccc1NC(=O)[C@@H]1N[C@@H](CC(C)(C)C)[C@@]2(CNc3cc(Cl)ccc32)[C@H]1c1cccc(Cl)c1F [Example 61, (2′S,3S,4′S,5′R)-6-chloro-4′-(3-chloro-2-fluorophenyl)-2′-(2,2-dimethylpropyl)-N-{4-[(1S,3S)-1-(2-{2-[(3S)-2,6-dioxopiperidin-3-yl]-1-oxo-3H-isoindol-4-yl}ethynyl)-5-azaspiro[2.5]octane-5-carbonyl]-2-methoxyphenyl}-1,2-dihydrospiro[indole-3,3′-pyrrolidine]-5′-carboxamide] | 5.75 | 
COc1cc(C(=O)N2CCC[C@@]3(C[C@@H]3C#Cc3cccc4c3CN([C@H]3CCC(=O)NC3=O)C4=O)C2)ccc1NC(=O)[C@@H]1N[C@@H](CC(C)(C)C)[C@@]2(CNc3cc(Cl)ccc32)[C@H]1c1cccc(Cl)c1F [Example 62, (2′S,3S,4′S,5′R)-6-chloro-4′-(3-chloro-2-fluorophenyl)-2′-(2,2-dimethylpropyl)-N-{4-[(1R,3S)-1-(2-{2-[(3S)-2,6-dioxopiperidin-3-yl]-1-oxo-3H-isoindol-4-yl}ethynyl)-5-azaspiro[2.5]octane-5-carbonyl]-2-methoxyphenyl}-1,2-dihydrospiro[indole-3,3′-pyrrolidine]-5′-carboxamide] | 40.2 | 
COc1cc(C(=O)N2CCC[C@]3(C[C@H]3C#Cc3cccc4c3CN([C@H]3CCC(=O)NC3=O)C4=O)C2)ccc1NC(=O)[C@@H]1N[C@@H](CC(C)(C)C)[C@@]2(CNc3cc(Cl)ccc32)[C@H]1c1cccc(Cl)c1F [Example 63, (2′S,3S,4′S,5′R)-6-chloro-4′-(3-chloro-2-fluorophenyl)-2′-(2,2-dimethylpropyl)-N-{4-[(1S,3R)-1-(2-{2-[(3S)-2,6-dioxopiperidin-3-yl]-1-oxo-3H-isoindol-4-yl}ethynyl)-5-azaspiro[2.5]octane-5-carbonyl]-2-methoxyphenyl}-1,2-dihydrospiro[indole-3,3′-pyrrolidine]-5′-carboxamide] | 41.6 | 
COc1cc(C(=O)N2CCC[C@]3(C[C@@H]3C#Cc3cccc4c3CN([C@H]3CCC(=O)NC3=O)C4=O)C2)ccc1NC(=O)[C@@H]1N[C@@H](CC(C)(C)C)[C@@]2(CNc3cc(Cl)ccc32)[C@H]1c1cccc(Cl)c1F [Example 64, (2′S,3S,4′S,5′R)-6-chloro-4′-(3-chloro-2-fluorophenyl)-2′-(2,2-dimethylpropyl)-N-{4-[(1R,3R)-1-(2-{2-[(3S)-2,6-dioxopiperidin-3-yl]-1-oxo-3H-isoindol-4-yl}ethynyl)-5-azaspiro[2.5]octane-5-carbonyl]-2-methoxyphenyl}-1,2-dihydrospiro[indole-3,3′-pyrrolidine]-5′-carboxamide] | 188 | 
COc1cc(C(=O)O)ccc1NC(=O)[C@@H]1N[C@@H](CC(C)(C)C)[C@](C#N)(c2ccc(Cl)cc2F)[C@H]1c1cccc(Cl)c1F [RG7388, reference compound] | 110 | 
